Each block holds one compound with its values, some of them ahead of it.
Columns and labels:
Experiment in all cases: Competitive isoTOP-ABPP, cell lysates
Format in all cases: binding
[1] = target: XPO1 C34 (O14980) (Homo sapiens, UniProt O14980)
[2] = target: DCUN1D1 C115 (Q96GG9) (Homo sapiens, UniProt Q96GG9)
[3] = target: T1, PDIA6 C190 (Q15084) (Homo sapiens, UniProt Q15084)
T1 sequence (Q15084 20-440): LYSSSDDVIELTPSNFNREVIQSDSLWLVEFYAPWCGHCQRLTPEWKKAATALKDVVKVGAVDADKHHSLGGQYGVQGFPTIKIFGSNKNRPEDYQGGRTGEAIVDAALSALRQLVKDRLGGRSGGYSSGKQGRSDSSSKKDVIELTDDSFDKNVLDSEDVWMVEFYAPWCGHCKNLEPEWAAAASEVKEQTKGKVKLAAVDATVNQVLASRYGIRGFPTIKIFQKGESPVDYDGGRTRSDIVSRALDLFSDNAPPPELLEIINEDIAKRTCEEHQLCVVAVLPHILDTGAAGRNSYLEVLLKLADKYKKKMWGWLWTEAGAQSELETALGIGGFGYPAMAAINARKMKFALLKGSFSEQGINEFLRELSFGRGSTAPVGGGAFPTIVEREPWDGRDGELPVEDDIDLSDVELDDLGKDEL

[4] = target: SMARCC2 C145 (Q8TAQ2) (Homo sapiens, UniProt Q8TAQ2)
[5] = target: T2, ADA C75 (P00813) (Homo sapiens, UniProt P00813); conditions: for isoTOP-ABPP ratio (reactivity profile), P00813_C75: 500 μm in-vitro ramos
T2 sequence (P00813 1-363): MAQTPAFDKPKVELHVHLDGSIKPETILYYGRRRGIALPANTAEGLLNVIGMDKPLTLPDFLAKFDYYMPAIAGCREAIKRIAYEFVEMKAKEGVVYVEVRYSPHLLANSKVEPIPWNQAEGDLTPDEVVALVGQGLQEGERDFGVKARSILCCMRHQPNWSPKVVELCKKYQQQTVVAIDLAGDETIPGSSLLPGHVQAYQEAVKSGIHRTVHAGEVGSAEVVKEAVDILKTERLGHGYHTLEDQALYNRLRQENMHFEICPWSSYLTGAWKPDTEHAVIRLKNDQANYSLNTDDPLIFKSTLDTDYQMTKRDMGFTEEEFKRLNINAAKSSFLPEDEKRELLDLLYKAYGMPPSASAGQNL

[6] = target: PRMT1 C109 (Q99873) (Homo sapiens, UniProt Q99873)
[7] = target: XPO1 C528 (O14980) (Homo sapiens, UniProt O14980)
[8] = target: T3, ACAT1 C126 (P24752) (Homo sapiens, UniProt P24752)
T3 sequence (P24752 34-427): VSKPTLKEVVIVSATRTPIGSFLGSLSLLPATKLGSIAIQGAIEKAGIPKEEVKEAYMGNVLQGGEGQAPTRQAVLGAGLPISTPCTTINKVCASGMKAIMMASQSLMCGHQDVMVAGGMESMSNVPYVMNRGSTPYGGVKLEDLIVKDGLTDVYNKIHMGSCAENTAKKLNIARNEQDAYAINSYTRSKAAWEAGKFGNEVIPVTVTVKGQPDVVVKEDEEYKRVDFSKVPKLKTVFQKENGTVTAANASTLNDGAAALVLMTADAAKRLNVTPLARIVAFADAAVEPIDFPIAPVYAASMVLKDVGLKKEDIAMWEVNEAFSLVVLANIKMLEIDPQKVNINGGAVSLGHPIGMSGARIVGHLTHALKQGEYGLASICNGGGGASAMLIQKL

[9] = target: T4, ACAT1 C119 (P24752) (Homo sapiens, UniProt P24752)
T4 sequence (P24752 34-427): T3 sequence (P24752 34-427)

[10] = target: STAT3 C259 (P40763) (Homo sapiens, UniProt P40763)
Sequence of STAT3 C259 (P40763) (P40763 whole entry): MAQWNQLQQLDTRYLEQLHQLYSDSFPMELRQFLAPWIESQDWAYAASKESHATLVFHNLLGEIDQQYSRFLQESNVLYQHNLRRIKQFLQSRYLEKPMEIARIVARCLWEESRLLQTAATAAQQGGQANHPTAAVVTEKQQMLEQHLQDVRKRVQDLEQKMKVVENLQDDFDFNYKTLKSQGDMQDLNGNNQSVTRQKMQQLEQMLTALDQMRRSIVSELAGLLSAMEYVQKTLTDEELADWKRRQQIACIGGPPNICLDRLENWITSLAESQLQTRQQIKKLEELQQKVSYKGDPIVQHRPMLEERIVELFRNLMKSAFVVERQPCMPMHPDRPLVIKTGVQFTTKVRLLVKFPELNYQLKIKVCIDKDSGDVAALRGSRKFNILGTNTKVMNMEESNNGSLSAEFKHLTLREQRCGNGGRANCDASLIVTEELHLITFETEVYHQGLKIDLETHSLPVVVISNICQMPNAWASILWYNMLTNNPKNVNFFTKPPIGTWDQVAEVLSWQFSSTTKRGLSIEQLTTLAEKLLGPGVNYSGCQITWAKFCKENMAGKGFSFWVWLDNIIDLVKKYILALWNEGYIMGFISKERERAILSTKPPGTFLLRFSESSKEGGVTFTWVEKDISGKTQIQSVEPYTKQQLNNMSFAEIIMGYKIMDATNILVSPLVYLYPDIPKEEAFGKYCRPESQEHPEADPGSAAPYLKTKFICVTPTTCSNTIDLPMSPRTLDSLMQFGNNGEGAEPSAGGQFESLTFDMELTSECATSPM

Sequence of XPO1 C34 (O14980) (O14980 whole entry): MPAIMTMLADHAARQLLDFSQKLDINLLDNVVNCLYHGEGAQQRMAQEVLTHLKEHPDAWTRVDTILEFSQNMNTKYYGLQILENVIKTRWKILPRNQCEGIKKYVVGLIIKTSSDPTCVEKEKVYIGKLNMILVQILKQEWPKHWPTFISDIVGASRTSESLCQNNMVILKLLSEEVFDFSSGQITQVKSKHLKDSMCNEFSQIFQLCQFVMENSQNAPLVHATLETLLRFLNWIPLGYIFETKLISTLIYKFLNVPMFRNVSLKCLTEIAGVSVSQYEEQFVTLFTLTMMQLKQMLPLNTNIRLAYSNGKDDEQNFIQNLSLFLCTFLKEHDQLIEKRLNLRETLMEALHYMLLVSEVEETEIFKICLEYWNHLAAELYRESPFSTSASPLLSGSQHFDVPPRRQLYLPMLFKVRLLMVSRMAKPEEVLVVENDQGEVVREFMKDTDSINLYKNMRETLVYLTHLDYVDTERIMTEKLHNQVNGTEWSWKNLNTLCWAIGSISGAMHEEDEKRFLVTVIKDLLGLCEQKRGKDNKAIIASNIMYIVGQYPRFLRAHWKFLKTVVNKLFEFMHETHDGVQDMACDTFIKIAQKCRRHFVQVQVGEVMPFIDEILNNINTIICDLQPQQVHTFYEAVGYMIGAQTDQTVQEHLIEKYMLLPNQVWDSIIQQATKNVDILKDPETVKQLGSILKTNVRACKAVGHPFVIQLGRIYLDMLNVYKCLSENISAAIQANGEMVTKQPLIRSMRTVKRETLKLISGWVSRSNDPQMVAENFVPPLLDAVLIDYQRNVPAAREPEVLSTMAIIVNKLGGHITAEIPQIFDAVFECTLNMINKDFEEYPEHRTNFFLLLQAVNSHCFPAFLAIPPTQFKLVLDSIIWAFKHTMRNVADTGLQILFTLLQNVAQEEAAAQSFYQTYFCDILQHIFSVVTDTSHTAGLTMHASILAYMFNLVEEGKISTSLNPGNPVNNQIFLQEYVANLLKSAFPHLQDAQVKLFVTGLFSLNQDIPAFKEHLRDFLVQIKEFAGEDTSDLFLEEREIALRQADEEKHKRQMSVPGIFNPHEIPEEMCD
Sequence of SMARCC2 C145 (Q8TAQ2) (Q8TAQ2 whole entry): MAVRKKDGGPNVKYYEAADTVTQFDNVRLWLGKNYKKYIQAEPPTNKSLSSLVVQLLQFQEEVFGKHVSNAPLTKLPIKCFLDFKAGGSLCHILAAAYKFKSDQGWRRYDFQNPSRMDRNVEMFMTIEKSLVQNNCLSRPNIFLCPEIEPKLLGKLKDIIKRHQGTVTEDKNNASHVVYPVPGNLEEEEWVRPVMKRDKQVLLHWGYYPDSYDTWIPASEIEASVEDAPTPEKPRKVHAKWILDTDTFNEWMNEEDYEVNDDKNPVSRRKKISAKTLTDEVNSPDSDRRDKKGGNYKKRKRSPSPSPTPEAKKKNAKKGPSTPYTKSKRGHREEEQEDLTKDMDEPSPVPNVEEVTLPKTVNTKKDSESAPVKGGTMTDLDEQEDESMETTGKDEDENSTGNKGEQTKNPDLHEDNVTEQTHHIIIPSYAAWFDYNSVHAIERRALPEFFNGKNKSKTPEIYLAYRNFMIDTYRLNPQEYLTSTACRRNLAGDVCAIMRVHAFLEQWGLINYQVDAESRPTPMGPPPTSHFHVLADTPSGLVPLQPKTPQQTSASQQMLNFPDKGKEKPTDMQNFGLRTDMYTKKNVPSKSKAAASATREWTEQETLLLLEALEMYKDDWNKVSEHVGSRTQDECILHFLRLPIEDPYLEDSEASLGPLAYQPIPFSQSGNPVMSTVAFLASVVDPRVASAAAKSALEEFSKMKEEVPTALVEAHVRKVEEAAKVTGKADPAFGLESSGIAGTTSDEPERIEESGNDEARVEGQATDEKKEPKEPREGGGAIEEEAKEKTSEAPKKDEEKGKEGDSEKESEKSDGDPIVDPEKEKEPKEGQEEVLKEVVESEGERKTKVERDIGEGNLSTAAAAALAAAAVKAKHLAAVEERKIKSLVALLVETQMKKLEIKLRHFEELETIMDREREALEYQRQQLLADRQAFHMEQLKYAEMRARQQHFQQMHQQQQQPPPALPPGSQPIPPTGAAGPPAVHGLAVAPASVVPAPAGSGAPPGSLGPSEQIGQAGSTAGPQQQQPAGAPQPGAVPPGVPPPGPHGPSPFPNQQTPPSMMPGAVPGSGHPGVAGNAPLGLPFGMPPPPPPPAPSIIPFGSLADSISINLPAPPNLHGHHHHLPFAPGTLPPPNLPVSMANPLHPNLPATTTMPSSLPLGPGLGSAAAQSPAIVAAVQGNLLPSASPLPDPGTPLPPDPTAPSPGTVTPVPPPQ
Sequence of PRMT1 C109 (Q99873) (Q99873 whole entry): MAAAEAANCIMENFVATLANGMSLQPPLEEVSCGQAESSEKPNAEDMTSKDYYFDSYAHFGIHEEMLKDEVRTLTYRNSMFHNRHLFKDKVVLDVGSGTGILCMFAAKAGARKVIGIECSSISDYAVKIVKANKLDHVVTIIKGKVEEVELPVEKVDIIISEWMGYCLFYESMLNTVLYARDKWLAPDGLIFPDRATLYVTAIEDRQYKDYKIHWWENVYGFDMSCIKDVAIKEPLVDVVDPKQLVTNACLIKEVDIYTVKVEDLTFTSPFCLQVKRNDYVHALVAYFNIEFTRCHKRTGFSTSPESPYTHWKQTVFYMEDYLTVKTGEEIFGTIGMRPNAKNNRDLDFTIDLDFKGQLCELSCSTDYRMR
Sequence of XPO1 C528 (O14980) (O14980 whole entry): as the sequence (O14980 whole entry) above
Sequence of DCUN1D1 C115 (Q96GG9) (Q96GG9 whole entry): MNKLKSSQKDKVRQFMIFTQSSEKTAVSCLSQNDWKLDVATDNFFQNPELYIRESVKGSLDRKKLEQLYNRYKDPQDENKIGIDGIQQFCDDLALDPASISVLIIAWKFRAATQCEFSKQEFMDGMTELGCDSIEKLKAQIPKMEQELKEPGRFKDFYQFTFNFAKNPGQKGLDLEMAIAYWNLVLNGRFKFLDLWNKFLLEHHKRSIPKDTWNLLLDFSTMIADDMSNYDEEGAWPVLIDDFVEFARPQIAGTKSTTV

- isoTOP-ABPP ratio (reactivity profile), O14980_C34 ([1]; 500 μm in-vitro ramos): 0.9
- isoTOP-ABPP ratio (reactivity profile), Q96GG9_C115 ([2]; 500 μm in-vitro ramos): 0.9
- isoTOP-ABPP ratio (reactivity profile), Q15084_C190 ([3]; 500 μm in-vitro ramos): 0.9
- isoTOP-ABPP ratio (reactivity profile), Q8TAQ2_C145 ([4]; 500 μm in-vitro ramos): 0.9
- isoTOP-ABPP ratio (reactivity profile), P00813_C75 [5]: 0.8
- isoTOP-ABPP ratio (reactivity profile), Q99873_C109 ([6]; 500 μm in-vitro ramos): 0.9
- isoTOP-ABPP ratio (reactivity profile), O14980_C528 ([7]; 500 μm in-vitro ramos): 0.9
- isoTOP-ABPP ratio (reactivity profile), P24752_C126 ([8]; 500 μm in-vitro ramos): 0.9
- isoTOP-ABPP ratio (reactivity profile), P24752_C119 ([9]; 500 μm in-vitro ramos): 1.0
SMILES: O=C(/C=C/c1ccccc1)Nc1cc(C(F)(F)F)cc(C(F)(F)F)c1 [compound 26]

- isoTOP-ABPP ratio (reactivity profile), O14980_C34 ([1]; 500 μm in-vitro ramos): 0.9
- isoTOP-ABPP ratio (reactivity profile), O14980_C34 ([1]; 500 μm in-vitro ramos_231): 0.8
- isoTOP-ABPP ratio (reactivity profile), P40763_C259 ([10]; 500 μm in-vitro ramos): 1.1
- isoTOP-ABPP ratio (reactivity profile), P40763_C259 ([10]; 500 μm in-vitro ramos_231): 1.0
- isoTOP-ABPP ratio (reactivity profile), Q15084_C190 ([3]; 500 μm in-vitro ramos): 1.6
- isoTOP-ABPP ratio (reactivity profile), Q15084_C190 ([3]; 500 μm in-vitro ramos_231): 1.1
- isoTOP-ABPP ratio (reactivity profile), Q8TAQ2_C145 ([4]; 500 μm in-vitro ramos): 1.2
- isoTOP-ABPP ratio (reactivity profile), Q8TAQ2_C145 ([4]; 500 μm in-vitro ramos_231): 1.1
- isoTOP-ABPP ratio (reactivity profile), P00813_C75 [5]: 0.9
- isoTOP-ABPP ratio (reactivity profile), Q99873_C109 ([6]; 500 μm in-vitro ramos): 1.1
- isoTOP-ABPP ratio (reactivity profile), Q99873_C109 ([6]; 500 μm in-vitro ramos_231): 0.8
- isoTOP-ABPP ratio (reactivity profile), P24752_C126 ([8]; 500 μm in-vitro ramos): 1.6
- isoTOP-ABPP ratio (reactivity profile), P24752_C126 ([8]; 500 μm in-vitro ramos_231): 1.7
- isoTOP-ABPP ratio (reactivity profile), P24752_C119 ([9]; 500 μm in-vitro ramos): 1.1
- isoTOP-ABPP ratio (reactivity profile), P24752_C119 ([9]; 500 μm in-vitro ramos_231): 1.1
SMILES: COc1ccccc1OCCNC(=O)CCl [compound 28]

- isoTOP-ABPP reactivity ratio, O14980_C34 ([1]; 500 μm, in-vitro_ramos): 0.9
- isoTOP-ABPP reactivity ratio, Q96GG9_C115 ([2]; 500 μm, in-vitro_ramos): 0.8
- isoTOP-ABPP reactivity ratio, P40763_C259 ([10]; 500 μm, in-vitro_ramos): 0.9
- isoTOP-ABPP reactivity ratio, Q15084_C190 ([3]; 500 μm, in-vitro_ramos): 1.1
- isoTOP-ABPP reactivity ratio, P00813_C75 ([5]; 500 μm, in-vitro_ramos): 0.9
- isoTOP-ABPP reactivity ratio, Q99873_C109 ([6]; 500 μm, in-vitro_ramos): 1.0
- isoTOP-ABPP reactivity ratio, O14980_C528 ([7]; 500 μm, in-vitro_ramos): 0.9
- isoTOP-ABPP reactivity ratio, P24752_C126 ([8]; 500 μm, in-vitro_ramos): 0.9
- isoTOP-ABPP reactivity ratio, P24752_C119 ([9]; 500 μm, in-vitro_ramos): 0.8
SMILES: C=CC(=O)N1CCC(c2noc3ccc(F)cc23)CC1 [compound 37]
